Results published in ChEMBL document CHEMBL1201862, “PubChem BioAssay data set” (2004).
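Each compound was tested at five concentrations against cells in 96-well plates for 48 hours. GI50 = concentration required for 50% inhibition of growth.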 Activity calls are given as the source filed them. Cut-off read from the data, not from the text of the source: active = GI50 up to about 1.1 µM and inactive = higher.

Key:
Experiment in all cases: NCI-60 cell line screen, 48 h
OVCAR-3 = tested on: OVCAR-3
EKVX = tested on: EKVX
OVCAR-8 = tested on: OVCAR-8
SK-MEL-28 = tested on: SK-MEL-28
TK-10 = tested on: TK-10
MCF7 = tested on: MCF7
A549 = tested on: A549
PC-3 = tested on: PC-3
HOP-92 = tested on: HOP-92
NCI-H23 = tested on: NCI-H23
UO-31 = tested on: UO-31
NCI-H226 = tested on: NCI-H226
Hs-578T = tested on: Hs-578T
U-251 = tested on: U-251
MDA-N = tested on: MDA-N
MDA-MB-435 = tested on: MDA-MB-435
SN12C = tested on: SN12C
K562 = tested on: K562
786-0 = tested on: 786-0
RPMI-8226 = tested on: RPMI-8226
BT-549 = tested on: BT-549
NCI/ADR-RES = tested on: NCI/ADR-RES
SW-620 = tested on: SW-620
SR = tested on: SR
HCT-116 = tested on: HCT-116
SK-MEL-5 = tested on: SK-MEL-5
KM12 = tested on: KM12
HOP-62 = tested on: HOP-62
SK-MEL-2 = tested on: SK-MEL-2
M14 = tested on: M14
CAKI-1 = tested on: CAKI-1
SF-539 = tested on: SF-539
SNB-19 = tested on: SNB-19
SF-268 = tested on: SF-268
HCC 2998 = tested on: HCC 2998
NCI-H522 = tested on: NCI-H522
ACHN = tested on: ACHN
DU-145 = tested on: DU-145
LOX IMVI = tested on: LOX IMVI
A498 = tested on: A498
MOLT-4 = tested on: MOLT-4
IGROV-1 = tested on: IGROV-1
HCT-15 = tested on: HCT-15
UACC-62 = tested on: UACC-62
Malme-3M = tested on: Malme-3M
NCI-H460 = tested on: NCI-H460
COLO 205 = tested on: COLO 205
T47D = tested on: T47D
HT-29 = tested on: HT-29
UACC-257 = tested on: UACC-257
SK-OV-3 = tested on: SK-OV-3
SF-295 = tested on: SF-295
OVCAR-5 = tested on: OVCAR-5
RXF 393 = tested on: RXF 393
OVCAR-4 = tested on: OVCAR-4
MDA-MB-231 = tested on: MDA-MB-231
SNB-75 = tested on: SNB-75
CCRF-CEM = tested on: CCRF-CEM
HL-60 = tested on: HL-60

Q: Which results are given for `CC1(C)SC2C(C(=O)O)N=C(Cc3ccccc3)N2C1C(=O)O` (stereo not given)?
A: GI50 (OVCAR-3): 49 µM (inactive); GI50 (EKVX): 3.97 µM (inactive); GI50 (OVCAR-8): 37.3 µM (inactive); GI50 (SK-MEL-28): 52.4 µM (inactive); GI50 (TK-10): 20.4 µM (inactive); GI50 (MCF7): 34.2 µM (inactive); GI50 (A549): 31.8 µM (inactive); GI50 (PC-3): 42.7 µM (inactive); GI50 (HOP-92): 42.8 µM (inactive); GI50 (NCI-H23): 86.3 µM (inactive); GI50 (UO-31): 19.4 µM (inactive); GI50 (NCI-H226): 29.8 µM (inactive); GI50 (Hs-578T): 29.4 µM (inactive); GI50 (U-251): 32.7 µM (inactive); GI50 (MDA-N): 49 µM (inactive); GI50 (MDA-MB-435): 40.7 µM (inactive); GI50 (SN12C): 35 µM (inactive); GI50 (K562): 62.7 µM (inactive); GI50 (786-0): 19.8 µM (inactive); GI50 (RPMI-8226): 46.8 µM (inactive); GI50 (BT-549): 31 µM (inactive); GI50 (NCI/ADR-RES): 33.9 µM (inactive); GI50 (SW-620): 60.3 µM (inactive); GI50 (SR): 33.9 µM (inactive); GI50 (HCT-116): 24.9 µM (inactive); GI50 (SK-MEL-5): > 100 µM (inactive); GI50 (KM12): > 100 µM (inactive); GI50 (HOP-62): 32.1 µM (inactive); GI50 (SK-MEL-2): > 100 µM (inactive); GI50 (M14): 37.2 µM (inactive); GI50 (CAKI-1): 43.7 µM (inactive); GI50 (SF-539): 30.8 µM (inactive); GI50 (SNB-19): 32.5 µM (inactive); GI50 (SF-268): 30.1 µM (inactive); GI50 (HCC 2998): 25.3 µM (inactive); GI50 (NCI-H522): 51.3 µM (inactive); GI50 (ACHN): 38.9 µM (inactive); GI50 (DU-145): 56.6 µM (inactive); GI50 (LOX IMVI): 25.5 µM (inactive); GI50 (A498): 53.7 µM (inactive); GI50 (MOLT-4): > 100 µM (inactive); GI50 (IGROV-1): > 100 µM (inactive); GI50 (HCT-15): 81.5 µM; GI50 (UACC-62): > 100 µM (inactive); GI50 (Malme-3M): 62.2 µM (inactive); GI50 (NCI-H460): 45.1 µM (inactive); GI50 (COLO 205): > 100 µM (inactive); GI50 (T47D): 24.4 µM (inactive); GI50 (HT-29): 13.6 µM (inactive); GI50 (UACC-257): 21.9 µM (inactive); GI50 (SK-OV-3): 41.2 µM (inactive); GI50 (SF-295): 31.7 µM (inactive); GI50 (OVCAR-5): 36.8 µM (inactive); GI50 (RXF 393): 34.6 µM (inactive); GI50 (OVCAR-4): 92.3 µM (inactive); GI50 (MDA-MB-231): 43.3 µM (inactive); GI50 (SNB-75): 19.6 µM (inactive)

Q: For `Clc1ccc(/N=C/C=C/Nc2ccc(Cl)cn2)nc1`, which GI50 (OVCAR-3) is on record?
A: 13.5 µM (inactive)

Q: What about the GI50 (EKVX) of the same compound?
A: 0.714 µM (active)

Q: And the GI50 (OVCAR-8)?
A: 10.4 µM (inactive)

Q: And the GI50 (SK-MEL-28)?
A: 18.6 µM (inactive)

Q: And the GI50 (TK-10)?
A: 19.1 µM (inactive)

Q: And the GI50 (MCF7)?
A: 16.4 µM (inactive)

Q: And the GI50 (A549)?
A: 14.5 µM (inactive)

Q: What about the GI50 (PC-3) of the same compound?
A: 14.5 µM (inactive)

Q: What about the GI50 (HOP-92) of the same compound?
A: 16.3 µM (inactive)

Q: And the GI50 (NCI-H23)?
A: 16.9 µM (inactive)

Q: What about the GI50 (UO-31) of the same compound?
A: 15.6 µM (inactive)

Q: And the GI50 (NCI-H226)?
A: 16.1 µM (inactive)

Q: And the GI50 (Hs-578T)?
A: 5.14 µM (inactive)

Q: What about the GI50 (U-251) of the same compound?
A: 8.26 µM (inactive)

Q: And the GI50 (MDA-N)?
A: 15.1 µM (inactive)

Q: And the GI50 (MDA-MB-435)?
A: 14.5 µM (inactive)

Q: What about the GI50 (SN12C) of the same compound?
A: 14.5 µM (inactive)

Q: What about the GI50 (K562) of the same compound?
A: 7.66 µM (inactive)

Q: And the GI50 (786-0)?
A: 5.65 µM (inactive)

Q: What about the GI50 (RPMI-8226) of the same compound?
A: 10.4 µM (inactive)

Q: And the GI50 (BT-549)?
A: 17.2 µM (inactive)

Q: And the GI50 (NCI/ADR-RES)?
A: 15.2 µM (inactive)

Q: What about the GI50 (SW-620) of the same compound?
A: 4.9 µM (inactive)

Q: And the GI50 (SR)?
A: 2.78 µM (inactive)

Q: And the GI50 (HCT-116)?
A: 12.2 µM (inactive)

Q: What about the GI50 (SK-MEL-5) of the same compound?
A: 13.7 µM (inactive)

Q: What about the GI50 (KM12) of the same compound?
A: 8.53 µM (inactive)

Q: What about the GI50 (HOP-62) of the same compound?
A: 16.9 µM (inactive)

Q: What about the GI50 (SK-MEL-2) of the same compound?
A: 15.6 µM (inactive)

Q: What about the GI50 (M14) of the same compound?
A: 16.4 µM (inactive)

Q: What about the GI50 (CAKI-1) of the same compound?
A: 9.82 µM (inactive)

Q: What about the GI50 (SF-539) of the same compound?
A: 17.3 µM (inactive)

Q: And the GI50 (SNB-19)?
A: 16 µM (inactive)

Q: And the GI50 (SF-268)?
A: 16.4 µM (inactive)

Q: What about the GI50 (NCI-H522) of the same compound?
A: 14 µM (inactive)

Q: What about the GI50 (ACHN) of the same compound?
A: 12.6 µM (inactive)

Q: And the GI50 (DU-145)?
A: 17.5 µM (inactive)

Q: And the GI50 (LOX IMVI)?
A: 7.73 µM (inactive)

Q: What about the GI50 (A498) of the same compound?
A: 20.1 µM (inactive)

Q: And the GI50 (MOLT-4)?
A: 4.74 µM (inactive)

Q: And the GI50 (IGROV-1)?
A: 15 µM (inactive)

Q: And the GI50 (HCT-15)?
A: 1.76 µM

Q: What about the GI50 (UACC-62) of the same compound?
A: 12.9 µM (inactive)

Q: What about the GI50 (Malme-3M) of the same compound?
A: 17.3 µM (inactive)

Q: And the GI50 (NCI-H460)?
A: 16 µM (inactive)

Q: What about the GI50 (COLO 205) of the same compound?
A: 12.6 µM (inactive)

Q: What about the GI50 (CCRF-CEM) of the same compound?
A: 3.22 µM (inactive)

Q: What about the GI50 (T47D) of the same compound?
A: 18.3 µM (inactive)

Q: What about the GI50 (HT-29) of the same compound?
A: 7.8 µM (inactive)

Q: And the GI50 (HL-60)?
A: 2.12 µM (inactive)

Q: And the GI50 (UACC-257)?
A: 17.1 µM (inactive)

Q: And the GI50 (SK-OV-3)?
A: 21.8 µM (inactive)

Q: And the GI50 (SF-295)?
A: 16.3 µM (inactive)

Q: What about the GI50 (OVCAR-5) of the same compound?
A: 16.3 µM (inactive)

Q: What about the GI50 (RXF 393) of the same compound?
A: 18.4 µM (inactive)

Q: What about the GI50 (OVCAR-4) of the same compound?
A: 7.52 µM (inactive)

Q: What about the GI50 (MDA-MB-231) of the same compound?
A: 5 µM (inactive)

Q: What about the GI50 (SNB-75) of the same compound?
A: 13 µM (inactive)
